Laboratory results from US8591895B2, “Combinations for the treatment of diseases involving cell proliferation” (Boehringer Ingelheim International GmbH, priority 2004, dated 2013).
Where two headings read alike, the source gives them in different places.

How the values were obtained:
NCI-H460 tumors = test: NCI-H460 lung model combination study: tumor growth of subcutaneous xenografts in nude mice; format: in vivo, human; conditions: Docetaxel 15 mg/kg i.v.; for T/C (tumor growth delay): day 17 (end of the controls), Nr. 46 50 mg/kg i.v., once weekly (q7d)x4, alone or combined; for delay of the average time to reach 1000 mm^3 in tumor volume compared to the controls: until day 71 (end of the study), weekly treatment until day 25, Nr. 46 50 mg/kg
Description: (§1) The triangles indicate the treatment days.

[1] = Tolerability (body weight) in NCI-H460 tumor-bearing nude mice; conditions: 10 animals per group; Docetaxel 15 mg/kg i.v., alone or with Nr. 46 50 mg/kg i.v.
Description: as §1

HCT 116 tumors = test: HCT 116 colon cancer model combination study: tumor growth of subcutaneous xenografts in nude mice; format: in vivo, human; conditions: Nr. 46 30 mg/kg i.v., irinotecan 12.5 mg/kg i.p.; for T/C (tumor growth delay): day 39 (end of the controls), once weekly (q7d)x10, alone or combined
[2] = format: in vivo; conditions: day 39, Nr. 46 30 mg/kg i.v., irinotecan 12.5 mg/kg i.p., once weekly; for body weight gain: controls gained 10.3%
BxPC-3 tumours = test: BxPC-3 pancreas model combination study: tumour growth of subcutaneous xenografts in nude mice; format: in vivo, human; conditions: day 26 (end of the controls); Nr. 46 50 mg/kg i.v., gemcitabine 100 mg/kg i.p., once weekly (q7d)x6, alone or combined
[3] = for body weight gain: day 26, Nr. 46 50 mg/kg i.v., gemcitabine 100 mg/kg i.p., once weekly, controls gained 6.2%
Description: Suboptimal doses of both compounds were used to facilitate the detection of additive, synergistic or antagonistic effects. Design of the Study • Model: Human adenocarcinoma model BxPC-3 grown as subcutaneous xenografts in nude mice. • Treatment groups (10 animals per group): • Controls Vehicle, i.v., once weekly for 4 weeks ((q7d)×4) • Exemplified compound Nr.
Tumor volumes and animal weights were recorded 3 times per week. Evaluation of therapy results was based on the absolute volumes of individual tumors.
Mice were female BomTac:NMRI-nu/nu. […] Gemcitabin infusion concentrate was diluted with 0.9% NaCl and injected intraperitoneally. The administration volume was 10 ml per kg body weight for both compounds. BxPC-3 tumours were established from cultured BxPC-3. Tumour volumes were determined three times a week using a calliper. The weight of mice was determined as an indicator of tolerability on the same days. Plasma samples were taken on the last treatment day.

SMILES	T/C (tumor growth delay) (NCI-H460 tumors) [%]	delay of the average time to reach 1000 mm^3 in tumor volume compared to the controls (NCI-H460 tumors) [days]	mice euthanized due to severe loss of body weight [1]	T/C (tumor growth delay) (HCT 116 tumors) [%]	delay of the average time to reach 1000 mm^3 in tumor volume (HCT 116 tumors; day 121 (end of the study), weekly treatment until day 64) [days]	body weight gain [2] [%]	T/C (tumour growth delay) (BxPC-3 tumours) [%]	body weight gain [3] [%]	tolerability of higher doses ([3]; mouse, in vivo)	tolerability [2]
CC(=O)O[C@@]12CO[C@@H]1C[C@H](O)[C@@]1(C)C(=O)[C@H](O)C3=C(C)[C@@H](OC(=O)[C@H](O)[C@@H](NC(=O)OC(C)(C)C)c4ccccc4)C[C@@](O)([C@@H](OC(=O)c4ccccc4)[C@H]21)C3(C)C [Docetaxel]	42	10.5	one mouse had to be euthanized	–	–	–	–	–	–	–
CC[C@@H]1C(=O)N(C)c2cnc(Nc3ccc(C(=O)NC4CCN(C)CC4)cc3OC)nc2N1C1CCCC1 [exemplified compound Nr. 46, 4-[[(7R)-8-cyclopentyl-7-ethyl-5,6,7,8-tetrahydro-5-methyl-6-oxo-2-pteridinyl]amino]-3-methoxy-N-(1-methyl-4-piperidinyl)-benzamide]	65	4.0	–	20	33.7	8.6	28	8.2	–	–
Nc1ccn([C@@H]2O[C@H](CO)[C@@H](O)C2(F)F)c(=O)n1 [gemcitabine, Gemcitabine]	–	–	–	–	–	–	65	8.8	not tolerated	–
CCc1c2c(nc3ccc(OC(=O)N4CCC(N5CCCCC5)CC4)cc13)-c1cc3c(c(=O)n1C2)COC(=O)[C@]3(O)CC [irinotecan]	–	–	–	25	–	5.9	–	–	–	well tolerated
